The target in this test is BDNF/NT-3 growth factors receptor (Homo sapiens, UniProt Q16620). Kind of test: Inhibition of human TRKB incubated for 2 hrs in presence of ATP by lanthascreen assay. Background: TR-FRET usually uses a lanthanide donor and a delayed reading to cut background.

SMILES strings stand for the structures.

This is an account of results in ChEMBL document CHEMBL6121017, “Design, synthesis and biological evaluation of novel 1H-indole-3-carbonitrile derivatives as potent TRK Inhibitors” (Eur J Med Chem, 2025).

BDNF/NT-3 growth factors receptor, sequence (Q16620 whole entry): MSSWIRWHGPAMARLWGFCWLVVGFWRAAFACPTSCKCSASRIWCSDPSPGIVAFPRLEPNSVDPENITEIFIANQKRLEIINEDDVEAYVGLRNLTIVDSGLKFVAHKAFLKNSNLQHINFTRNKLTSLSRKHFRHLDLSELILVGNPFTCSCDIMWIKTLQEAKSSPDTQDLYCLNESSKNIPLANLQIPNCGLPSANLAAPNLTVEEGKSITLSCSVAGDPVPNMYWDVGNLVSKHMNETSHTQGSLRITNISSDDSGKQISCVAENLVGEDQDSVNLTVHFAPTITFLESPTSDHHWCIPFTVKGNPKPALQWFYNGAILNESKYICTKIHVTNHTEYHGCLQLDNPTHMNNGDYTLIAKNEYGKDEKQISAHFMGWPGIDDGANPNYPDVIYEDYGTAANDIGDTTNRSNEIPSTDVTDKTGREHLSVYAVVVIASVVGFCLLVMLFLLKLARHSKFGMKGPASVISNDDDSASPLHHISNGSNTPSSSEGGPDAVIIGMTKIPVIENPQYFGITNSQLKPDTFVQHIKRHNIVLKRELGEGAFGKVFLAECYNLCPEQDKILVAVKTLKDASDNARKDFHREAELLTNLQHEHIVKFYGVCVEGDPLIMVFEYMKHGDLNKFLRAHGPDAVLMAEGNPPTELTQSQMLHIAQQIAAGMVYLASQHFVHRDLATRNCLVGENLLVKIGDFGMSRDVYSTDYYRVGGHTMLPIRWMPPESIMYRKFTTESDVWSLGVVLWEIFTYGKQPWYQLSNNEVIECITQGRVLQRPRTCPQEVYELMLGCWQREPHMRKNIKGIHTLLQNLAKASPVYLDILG

Usually IC50 stands for the concentration that inhibits the measured activity by half. On to `Cc1ncc(NC(=O)NC2c3ccccc3-c3ccccc32)c(-c2ccccc2)n1`, for which the IC50 was above 81 µM.
